Biological target: T1, human NOX4 (Homo sapiens, UniProt Q9NPH5)
T1 construct: The full-length human NOX4 (NM_016931.3) transcript was cloned; expressed in transfected cells
T1 sequence (Q9NPH5 1-578): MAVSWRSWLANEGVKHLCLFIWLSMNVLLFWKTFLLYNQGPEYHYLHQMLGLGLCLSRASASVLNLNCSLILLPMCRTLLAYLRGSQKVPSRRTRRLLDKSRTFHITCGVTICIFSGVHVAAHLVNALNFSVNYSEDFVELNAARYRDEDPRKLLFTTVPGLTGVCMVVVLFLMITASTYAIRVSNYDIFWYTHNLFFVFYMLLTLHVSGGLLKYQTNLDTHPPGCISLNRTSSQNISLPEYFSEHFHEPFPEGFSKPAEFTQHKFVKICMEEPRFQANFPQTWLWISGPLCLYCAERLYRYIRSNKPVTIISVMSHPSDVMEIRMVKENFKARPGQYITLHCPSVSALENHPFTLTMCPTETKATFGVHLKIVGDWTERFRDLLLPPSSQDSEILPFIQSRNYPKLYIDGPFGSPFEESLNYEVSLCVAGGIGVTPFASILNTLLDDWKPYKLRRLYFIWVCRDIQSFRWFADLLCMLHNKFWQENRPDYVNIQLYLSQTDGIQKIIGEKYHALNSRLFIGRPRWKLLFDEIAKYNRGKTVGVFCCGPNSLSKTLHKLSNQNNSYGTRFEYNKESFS
T1 sequence (P13498 1-195 partner): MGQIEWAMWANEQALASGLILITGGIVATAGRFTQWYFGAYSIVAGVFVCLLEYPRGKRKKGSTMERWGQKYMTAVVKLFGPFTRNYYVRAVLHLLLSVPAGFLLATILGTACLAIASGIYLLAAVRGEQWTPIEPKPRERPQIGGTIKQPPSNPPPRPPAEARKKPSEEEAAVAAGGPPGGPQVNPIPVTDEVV
Test: Amplex Red activity assay (cellular H2O2 formation in hNOX4 T-REx-293 cells)
Assay type: cell-based
Settings: tet-induced 24 h, extracellular H2O2 by Amplex Red, 60 min 25° C., geometric mean if determined several times
How it was run: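 Tet-induced (1 μg/mL, 24 h) HEK293 T-REx cells stably expressing full-length human NOX4, 20 000 cells/well, exposed to compounds (10 concentrations, 50 μM to 100 nM; 1.25% DMSO) for 60 min at 25°C. Extracellular H2O2 detected by Amplex Red resorufin fluorescence (ex 550/em 600 nm) versus vehicle; IC50 calculated.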

SMILES | IC50
O=C(Nc1ccc2oc(N3CCC34CCOC4)nc2c1)c1ccc2c(c1)OCO2 (centres unmarked) [Example 125, Benzo[1,3]dioxole-5-carboxylic acid [2-(6-oxa-1-aza-spiro[3.4]oct-1-yl)-benzooxazol-5-yl]-amide] | 772 nM
O=C(Nc1ccc2oc(N3CCC34CCOCC4)nc2c1)c1ccc2c(c1)OCO2 [Example 126, Benzo[1,3]dioxole-5-carboxylic acid [2-(7-oxa-1-aza-spiro[3.5]non-1-yl)-benzooxazol-5-yl]-amide] | 757 nM
O=C(Nc1ccc2oc(N3CCCC3)nc2c1)c1ccc2c(c1)OCO2 [Example 127, Benzo[1,3]dioxole-5-carboxylic acid (2-pyrrolidin-1-yl-benzooxazol-5-yl)-amide] | 1250 nM
O=C(Nc1ccc2oc(N3CCCC34COC4)nc2c1)c1ccc2c(c1)OCO2 [Example 128, Benzo[1,3]dioxole-5-carboxylic acid [2-(2-oxa-5-aza-spiro[3.4]oct-5-yl)-benzooxazol-5-yl]-amide] | 1740 nM
O=C(Nc1ccc2oc(N3CCCCC3)nc2c1)c1ccc2c(c1)OCO2 [Example 129, Benzo[1,3]dioxole-5-carboxylic acid (2-piperidin-1-yl-benzooxazol-5-yl)-amide] | 857 nM
O=C(Nc1ccc2oc(N3CCCC(F)(F)C3)nc2c1)c1ccc2c(c1)OCO2 [Example 130, Benzo[1,3]dioxole-5-carboxylic acid [2-(3,3-difluoro-piperidin-1-yl)-benzooxazol-5-yl]-amide] | 991 nM
COC1CCN(c2nc3cc(NC(=O)c4ccc5c(c4)OCO5)ccc3o2)CC1 [Example 131, Benzo[1,3]dioxole-5-carboxylic acid [2-(4-methoxy-piperidin-1-yl)-benzooxazol-5-yl]-amide] | 1050 nM
O=C(Nc1ccc2oc(N3CCC4(CC3)COC4)nc2c1)c1ccc2c(c1)OCO2 [Example 132, Benzo[1,3]dioxole-5-carboxylic acid [2-(2-oxa-7-aza-spiro[3.5]non-7-yl)-benzooxazol-5-yl]-amide] | 1080 nM
O=C(Nc1ccc2oc(N3CCCC4(COC4)C3)nc2c1)c1ccc2c(c1)OCO2 [Example 133, Benzo[1,3]dioxole-5-carboxylic acid [2-(2-oxa-6-aza-spiro[3.5]non-6-yl)-benzooxazol-5-yl]-amide] | 614 nM
O=C(Nc1ccc2oc(N3CCC(F)(F)CC3)nc2c1)c1ccc2c(c1)OCO2 [Example 134, Benzo[1,3]dioxole-5-carboxylic acid [2-(4,4-difluoro-piperidin-1-yl)-benzooxazol-5-yl]-amide] | 870 nM
O=C(Nc1ccc2oc(N3CCC(O)CC3)nc2c1)c1ccc2c(c1)OCO2 [Example 135, Benzo[1,3]dioxole-5-carboxylic acid [2-(4-hydroxy-piperidin-1-yl]-benzooxazol-5-yl]-amide] | 1090 nM
O=C(Nc1ccc2oc(N3CCOCC3)nc2c1)c1ccc2c(c1)OCO2 [Example 136, Benzo[1,3]dioxole-5-carboxylic acid (2-morpholin-4-yl-benzooxazol-5-yl)-amide] | 1280 nM
CN1CCN(c2nc3cc(NC(=O)c4ccc5c(c4)OCO5)ccc3o2)CC1 [Example 137, Benzo[1,3]dioxole-5-carboxylic acid [2-(4-methyl-piperazin-1-yl)-benzooxazol-5-yl]-amide] | 1640 nM
O=C(Nc1ccc2oc(N(C3CC3)C3COC3)nc2c1)c1ccc2c(c1)OCO2 [Example 138, Benzo[1,3]dioxole-5-carboxylic acid [2-(cyclopropyl-oxetan-3-yl-amino)-benzooxazol-5-yl]-amide] | 1480 nM
CCN(CC)c1nc2cc(NC(=O)c3ccc4c(c3)OCO4)ccc2o1 [Example 139, Benzo[1,3]dioxole-5-carboxylic acid (2-diethylamino-benzooxazol-5-yl)-amide] | 1090 nM
O=C(Nc1ccc2oc(N3CC(O)C3)nc2c1)c1ccc2c(c1)CCCO2 [Example 140, Chroman-6-carboxylic acid [2-(3-hydroxy-azetidin-1-yl)-benzooxazol-5-yl]-amide] | 2520 nM
O=C(Nc1ccc2oc(N3CC(F)(F)C3)nc2c1)c1ccc2c(c1)CCCO2 [Example 141, Chroman-6-carboxylic acid [2-(3,3-difluoro-azetidin-1-yl)-benzooxazol-5-yl]-amide] | 10600 nM
O=C(Nc1ccc2oc(N3CCC34CCC4)nc2c1)c1ccc2c(c1)CCCO2 [Example 142, Chroman-6-carboxylic acid [2-(1-aza-spiro[3.3]hept-1-yl)-benzooxazol-5-yl]-amide] | 891 nM

SMILES | IC50
O=C(Nc1ccc2oc(N3CCC34COC4)nc2c1)c1ccc2c(c1)CCCO2 [Example 143, Chroman-6-carboxylic acid [2-(6-oxa-1-aza-spiro[3.3]hept-1-yl)-benzooxazol-5-yl]-amide] | 681 nM
O=C(Nc1ccc2oc(N3CCC34CCOC4)nc2c1)c1ccc2c(c1)CCCO2 (centres unmarked) [Example 144, Chroman-6-carboxylic acid [2-(6-oxa-1-aza-spiro[3.4]oct-1-yl)-benzooxazol-5-yl]-amide] | 1540 nM
O=C(Nc1ccc2oc(N3CCC34CCOCC4)nc2c1)c1ccc2c(c1)CCCO2 [Example 145, Chroman-6-carboxylic acid [2-(7-oxa-1-aza-spiro[3.5]non-1-yl)-benzooxazol-5-yl]-amide] | 1400 nM
O=C(Nc1ccc2oc(N3CCCC3)nc2c1)c1ccc2c(c1)CCCO2 [Example 146, Chroman-6-carboxylic acid (2-pyrrolidin-1-yl-benzooxazol-5-yl)-amide] | 3180 nM
O=C(Nc1ccc2oc(N3CCCC34COC4)nc2c1)c1ccc2c(c1)CCCO2 [Example 147, Chroman-6-carboxylic acid [2-(2-oxa-5-aza-spiro[3.4]oct-5-yl)-benzooxazol-5-yl]-amide] | 379 nM
O=C(Nc1ccc2oc(N3CCCCC3)nc2c1)c1ccc2c(c1)CCCO2 [Example 148, Chroman-6-carboxylic acid (2-piperidin-1-yl-benzooxazol-5-yl)-amide] | 1880 nM
O=C(Nc1ccc2oc(N3CCC(F)(F)CC3)nc2c1)c1ccc2c(c1)CCCO2 [Example 149, Chroman-6-carboxylic acid [2-(4,4-difluoro-piperidin-1-yl)-benzooxazol-5-yl]-amide] | 1430 nM
O=C(Nc1ccc2oc(N3CCCC(F)(F)C3)nc2c1)c1ccc2c(c1)CCCO2 [Example 150, Chroman-6-carboxylic acid [2-(3,3-difluoro-piperidin-1-yl)-benzooxazol-5-yl]-amide] | 2200 nM
O=C(Nc1ccc2oc(N3CCC(O)CC3)nc2c1)c1ccc2c(c1)CCCO2 [Example 151, Chroman-6-carboxylic acid [2-(4-hydroxy-piperidin-1-yl)-benzooxazol-5-yl]-amide] | 1410 nM
COC1CCN(c2nc3cc(NC(=O)c4ccc5c(c4)CCCO5)ccc3o2)CC1 [Example 152, Chroman-6-carboxylic acid [2-(4-methoxy-piperidin-1-yl)-benzooxazol-5-yl]-amide] | 1350 nM
O=C(Nc1ccc2oc(N3CCC4(CC3)COC4)nc2c1)c1ccc2c(c1)CCCO2 [Example 153, Chroman-6-carboxylic acid [2-(2-oxa-7-aza-spiro[3.5]non-7-yl)-benzooxazol-5-yl]-amide] | 1300 nM
O=C(Nc1ccc2oc(N3CCCC4(COC4)C3)nc2c1)c1ccc2c(c1)CCCO2 [Example 154, Chroman-6-carboxylic acid [2-(2-oxa-6-aza-spiro[3.5]non-6-yl)-benzooxazol-5-yl]-amide] | 1130 nM
O=C(Nc1ccc2oc(N3CCOCC3)nc2c1)c1ccc2c(c1)CCCO2 [Example 155, Chroman-6-carboxylic acid (2-morpholin-4-yl-benzooxazol-5-yl)-amide] | 756 nM
CN1CCN(c2nc3cc(NC(=O)c4ccc5c(c4)CCCO5)ccc3o2)CC1 [Example 156, Chroman-6-carboxylic acid [2-(4-methyl-piperazin-1-yl)-benzooxazol-5-yl]-amide] | 1790 nM
CCN(CC)c1nc2cc(NC(=O)c3ccc4c(c3)CCCO4)ccc2o1 [Example 157, Chroman-6-carboxylic acid (2-diethylamino-benzooxazol-5-yl)-amide] | 2030 nM
O=C(Nc1ccc2oc(N(C3CC3)C3COC3)nc2c1)c1ccc2c(c1)CCCO2 [Example 158, Chroman-6-carboxylic acid [2-(cyclopropyl-oxetan-3-yl-amino)-benzooxazol-5-yl]-amide] | 2860 nM
O=C(Nc1ccc2oc(N3CC(O)C3)nc2c1)c1ccc2c(c1)OCCO2 [Example 159, 2,3-Dihydro-benzo[1,4]dioxine-6-carboxylic acid [2-(3-hydroxy-azetidin-1-yl)-benzooxazol-5-yl]-amide] | 1480 nM

— patent publication US11136317B2, “NADPH oxidase 4 inhibitors” (ACTELION PHARMACEUTICALS LTD, priority 2015, dated 2021)
